# Where two headings read alike, the source gives them in different places.
# Tests used:
# Histamine H3 = target: T1, Histamine H3 (Cavia porcellus, UniProt Q9JI35); assay: Histamine H3 radioligand binding assay, [3H]-R-α-methylhistamine, guinea pig ileum longitudinal muscle myenteric plexus membranes
# T1 construct: ileum longitudinal muscle myenteric plexus membranes; from tissue; host or cells: ileum longitudinal muscle myenteric plexus membranes of male Dunkin Hartley guinea pigs
# Description: Histamine H3 Radioligand Binding Assay
# Male Dunkin Hartley guinea pigs (200-300 g) were used. The small intestine was rapidly removed (cut ~5 cm from caecum and 5 cm from stomach) and placed in ice-cold 20 mM Hepes-NaOH buffer (pH7.4 at 21±3° C.). The tissue was cut into ~10 cm segments, flushed through with ice-cold 20 mM Hepes-NaOH buffer and placed in a beaker containing fresh buffer at 4° C. 10 cm segments of ileum were threaded onto a glass pipette and the longitudinal muscle myenteric plexus was peeled away from the circular muscle using damp cotton-wool. Longitudinal muscle myenteric plexus was immediately placed in ice-cold Viaspan® solution (~100 ml for tissue from 3 guinea pigs) and placed in the refrigerator for 24 hours.
# Pre-soaked tissue was weighed and minced with scissors. The tissue was then homogenised in Viaspan® using a polytron (Kinematica AG; PT-DA 3020/2TS, 3×~1-2 s). 50 ml of 500 mM Tris HCl (pH6.9 at 21±3° C.) was added to the tissue and the mixture centrifuged at 39,800×g for 12 min at 4° C. The supernatant was discarded and rehomogenised in 100 ml ice-cold 20 mM Hepes-NaOH buffer (pH7.4 at 21±3° C.) using a teflon-in-glass homogeniser (setting 10; 3×). The homogenate was recentrifuged at 39,800×g and the pellet resuspended in 20 mM Hepes-NaOH buffer (pH7.4 at 21±3° C.), to a tissue concentration of 50 mg.ml^-1, using a polytron (Brinkman, PT10, 3×~1 s).
# Guinea pig ileum longitudinal muscle myenteric plexus membranes (400 μl) were incubated for 165 min at 21±3° C. in a final volume of 500 μl with 20 mM Hepes-NaOH buffer containing [^3 H]-R-α-methylhistamine (50 μl; 3 nM) and competing compound. Total and non-specific binding of [^3 H]-R-α-methylhistamine were defined using 50 μl of buffer and 50 μl of 10 μM thioperamide, respectively. The assay was terminated by rapid filtration through Whatman GF/B filters, presoaked (2 hr) in 0. 1% polyethyleneimine,using a Brandell Cell Harvester. The filters were washed (3×3 ml) with ice-cold 50 mM Tris-HCl (pH6.9 at 21±3° C.), transferred into scintillation vials, 5 ml liquid scintillation cocktail was added and after 4 hours the bound radioactivity was determined by counting (4 min) in a Beckman liquid scintillation counter.
# Data are analysed using GraphPad prism and the general equation for a competition curve with variable Hill slope (nH).
# Y=Non-specific binding+(Total binding-Non-specific binding)/1+10^((logIC.sbsp.50^-X).n.sbsp.H^)
# X is the log concentration of competing compound, Y is the binding obtained at each concentration of X, pIC50 is the concentration of the competitor required to compete for half of the specific binding.
# The IC50 is converted to the K1 using the Cheng Prusoff equation, […]
# IC50 is the concentration of competitor required to compete for half the specific binding, L is the radioligand concentration used, KD is the equilibrium dissociation constant for the radioligand determined by saturation experiments.
# (§1) Typical variance in the functional assay is ±0.15 log units. Typical variance in the binding assay is ±0.12 log units. This means that if the discrepancy between the two assays is greater than about 0.5 log units, then this difference on average is significant.
# H3 receptor = target: T2, H3 receptor (Cavia porcellus, UniProt Q9JI35); assay: H3 receptor bioassay (functional assay), guinea pig ileal longitudinal muscle myenteric plexus; type: cell-based; details: antagonism of R-(α)-methylhistamine E/[A] curve, Schild's methods; electrically stimulated guinea pig ileum; variance ±0.15 log units; read-out: pKB (functional assay) (converted)
# T2 construct: the longitudinal muscle layer and adhering myenteric plexus was teased away; from tissue; host or cells: ileal longitudinal muscle with adhering myenteric plexus of male Dunkin-Hartley guinea pigs
# T2 sequence (Q9JI35 whole entry): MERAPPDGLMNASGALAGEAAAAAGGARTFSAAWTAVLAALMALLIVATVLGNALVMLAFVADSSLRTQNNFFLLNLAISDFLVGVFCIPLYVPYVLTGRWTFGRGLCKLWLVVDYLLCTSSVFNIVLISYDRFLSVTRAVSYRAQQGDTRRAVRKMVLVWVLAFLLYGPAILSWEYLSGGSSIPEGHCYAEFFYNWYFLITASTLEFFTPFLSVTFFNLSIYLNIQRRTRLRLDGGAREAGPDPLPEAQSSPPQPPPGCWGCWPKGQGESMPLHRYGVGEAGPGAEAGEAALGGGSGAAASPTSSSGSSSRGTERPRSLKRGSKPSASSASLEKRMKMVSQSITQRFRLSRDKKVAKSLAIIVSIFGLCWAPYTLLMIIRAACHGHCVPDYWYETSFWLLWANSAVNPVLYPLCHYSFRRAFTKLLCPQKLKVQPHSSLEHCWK
# Description: The biological activity of the compounds of the examples was measured using the ileal longitudinal muscle, myenteric plexus assay described by Paton and Aboo Zar (J. Physiol. 194, 13-33 (1968)). Male Dunkin-Hartley guinea pigs (250-300 g) were employed. Briefly, a 50 cm portion of ileum proximal to the caecum was removed, after discarding the terminal 20 cm. Ileal segments (3 cm) were cleaned by passing Krebs-Henseleit buffer containing 3 μM mepyramine gently through the ileum using a Pasteur pipette (size: 13.8 cm length, 0.65 cm diameter). To avoid unnecessary damage to the tissue, Krebs-Henseleit buffer was passed through the ileal segment, while it was lying horizontally on a petri dish. Therefore, the ileum was not over-distended and the buffer flowed through with ease. Each segment was then passed over a Pasteur pipette and the longitudinal muscle layer and adhering myenteric plexus was teased away using moist cotton wool, by stroking tangentially away from the mesenteric attachment. The tissues were suspended in 20 ml organ baths containing Krebs-Henseleit buffer at 37±1° C. and gassed with […]. The tissues were ligated to two parallel stainless steel wires, situated between two platinum electrodes (0.76 cm length, 0.06 cm diameter). All measurements were recorded isometrically (Grass FTO3 transducer). Following an initial loading tension of 1 g, the tissues were stimulated with electrical pulses at a frequency of 0.1 Hz and a pulse duration of 0.5msec, as described by Kosterlitz & Watt (1968). Initially, the tissues were stimulated at supramaximal (1.3 fold times maximal) voltage for a period of 30 min and then the tissues were washed and re-stimulated. A "sighter dose" of the selective histamine H3 -receptor agonist, R-(α)-methylhistamine(0.3 μM) (Arrang et al., 1987), was administered. Upon generation of response, the "sighter dose" was removed from the tissues by "washout" (6 washes over 60 min) and during this period the electrical stimulation was switched off. The tissues were then re-stimulated and allowed to stabilise prior to the addition of drug treatments, which were allocated on a randomised block basis to the organ baths. Following the incubation period, a single cumulative E/[A] curve was obtained. The experimental E/[A] curve data was expressed as the percentage inhibition of the peak height of electrically-stimulated contraction. Antagonist affinity values were calculated from the degree of rightward shift of the R-(α)-methylhistamine E/[A] curves using Schild's methods (Arunlatcshama & Schild, 1949).
# as §1
# [1] = 3 nM [3H]-R-α-methylhistamine, 165 min, 21±3° C., Cheng Prusoff, variance ±0.12 log units
# [2] = 3 nM [3H]-R-α-methylhistamine, 165 min, 21±3° C., Cheng Prusoff, variance ±0.12 log units, read-out: pK1 (binding assay) (converted)
# T1 sequence (Q9JI35 whole entry): as above
SMILES,pK1 (binding assay) (Histamine H3; [1]),Kb (H3 receptor) [nM],Ki (Histamine H3; [2]) [nM],Ki (Histamine H3) [nM]
"O=S(=O)(NCCc1c[nH]cn1)c1ccc2ccccc2c1 [Example 1, N-[2-(4(5)-Imidazoyl)ethyl]-2-naphthalenesulfonamide]",7.77,200,–,–
"O=S(=O)(NCCCCCc1c[nH]cn1)c1ccc2ccccc2c1 [Example 6, N-[5-(4(5)-Imidazoyl)pentyl]-2-naphthalenesulfonamide]",7.50,110,–,–
"O=S(=O)(NCCCCc1c[nH]cn1)c1ccc2ccccc2c1 [Example 7, N-[4-(4(5)-Imidazoyl)butyl]-2-naphthalenesulfonamide]",7.42,155,–,–
O=S(=O)(NCCCCCCc1c[nH]cn1)c1ccc2ccccc2c1 [Example 8],7.49,77.6,–,–
"O=S(=O)(Cc1ccc(Cl)cc1)NCCCCCc1c[nH]cn1 [Example 9, N-[5-(4(5)-Imidazoyl)pentyl]-(4-chlorophenyl)methanesulfonamide]",7.94,46.8,–,–
"O=S(=O)(Cc1ccc(Cl)cc1)NCCCCc1c[nH]cn1 [Example 10, N-[4-(4(5)-Imidazoyl)butyl]-(4-chlorophenyl)methanesulfonamide]",8.53,2.4,–,–
"O=S(=O)(Cc1ccc(Cl)cc1)NCCCCCCc1c[nH]cn1 [Example 11, N-[6-(4(5)-Imidazoyl)hexyl]-(4-chlorophenyl)methanesulfonamide]",7.95,9.77,–,–
"O=S(=O)(NCCCCCc1c[nH]cn1)NCc1ccc(Cl)cc1 [Example 12, N-[5-(4(5)-Imidazoyl)pentyl]-N'-(4-chlorophenyl)methyl-sulfamide]",8.23,6.31,–,–
"O=S(=O)(NCCCCc1c[nH]cn1)NCc1ccc(Cl)cc1 [Example 13, N-[4-(4(5)-Imidazoyl)butyl]-N'-(4-chlorophenyl)methyl-sulfamide]",8.56,2.09,–,–
"O=S(=O)(NCCCc1c[nH]cn1)NCc1ccc(Cl)cc1 [Example 14, N-[3-(4(5)-Imidazoyl)propyl]-N'-(4-chlorophenyl)methyl-sulfamide]",7.28,91.2,–,–
"O=S(=O)(NCCCCCCc1c[nH]cn1)NCc1ccc(Cl)cc1 [Example 15, N-[6-(4(5)-Imidazoyl)hexyl]-N'-(4-chlorophenyl)methyl-sulfamide]",8.36,1.7,–,–
"O=S(=O)(Cc1ccc2ccccc2c1)NCCc1c[nH]cn1 [Example 19, N-[2-(4(5)-Imidazoyl)ethyl]-2-naphthylmethanesulfonamide]",–,> 10000,1120,–
"O=S(=O)(/C=C/c1ccccc1)NCCc1c[nH]cn1 [Example 20, (E)-N-[2-(4(5)-Imidazoyl)ethyl]-2-phenylethenesulfonamide]",7.26,> 3160,–,–
"O=S(=O)(CCC1CCCCC1)NCCc1c[nH]cn1 [Example 23, N-[2-(4(5)-Imidazoyl)ethyl]-2-cyclohexylethanesulfonamide]",7.55,1350,–,–
O=S(=O)(NCCCCCCCc1c[nH]cn1)c1ccc2ccccc2c1 [Example 29],7.40,132,–,–
"O=S(=O)(NCCCCCCCCc1c[nH]cn1)c1ccc2ccccc2c1 [Example 30, N-[8-(4(5)-Imidazoyl)octyl]-2-naphthalenesulfonamide]",6.97,240,–,–
"O=S(=O)(NCCCCCCCCCCc1c[nH]cn1)c1ccc2ccccc2c1 [Example 31, N-[10-(4(5)-Imidazoyl)decyl]-2-naphthalenesulfonamide]",7.07,1620,–,–
"O=S(=O)(Cc1ccc(Cl)cc1)NCCCCCCCc1c[nH]cn1 [Example 32, N-[7-(4(5)-Imidazoyl)heptyl]-(4-chlorophenyl)methanesulfonamide]",7.44,43.7,–,–
"O=S(=O)(Cc1ccc(Cl)cc1)NCCCCCCCCc1c[nH]cn1 [Example 33, N-[8-(4(5)-Imidazoyl)octyl]-(4-chlorophenyl)methanesulfonamide]",7.27,229,–,–
"O=S(=O)(Cc1ccc(Cl)cc1)NCCCCCCCCCCc1c[nH]cn1 [Example 34, N-[10-(4(5)-Imidazoyl)decyl]-(4-chlorophenyl)methanesulfonamide]",7.23,–,–,–
"O=S(=O)(NCCCCCCCCCCc1c[nH]cn1)NCc1ccc(Cl)cc1 [Example 40, N-[10-(4(5)-Imidazoyl)decyl]-N'-(4-chlorophenyl)methyl-sulfamide]",6.02,–,–,–
"O=S(=O)(NCCCCc1c[nH]cn1)NCC12CC3CC(CC(C3)C1)C2 [Example 52, N-[4-(4(5)-Imidazoyl)butyl]-N'-adamant-1-ylmethyl-sulfamide]",–,–,200,–
"O=S(=O)(Cc1ccc(Br)cc1)NCCCCc1c[nH]cn1 [Example 77, N-[4-(4(5)-Imidazoyl)butyl]-(4-bromophenyl)methanesulfonamide]",–,–,–,3.09
"O=S(=O)(Cc1ccc(C(F)(F)F)cc1)NCCCCc1c[nH]cn1 [Example 78, N-[4-(4(5)-Imidazoyl)butyl]-(4-trifluoromethylphenyl)methanesulfonamide]",–,–,3.55,–
"O=S(=O)(Cc1ccc(F)cc1)NCCCCc1c[nH]cn1 [Example 79, N-[4-(4(5)-Imidazoyl)butyl]-(4-fluoromethylphenyl)methanesulfonamide]",8.13,–,–,–
"C[C@@H](NS(=O)(=O)NCCCCc1c[nH]cn1)c1ccccc1 [Example 80, N-[4-(4(5)-Imidazoyl)butyl]-N'-(1R-phenylethyl)-sulfamide]",–,–,174,–
"C[C@H](NS(=O)(=O)NCCCCc1c[nH]cn1)c1ccccc1 [Example 81, N-[4-(4(5)-Imidazoyl)butyl]-N'-(1S-phenylethyl)-sulfamide]",–,–,145,–
"O=S(=O)(NCCCCCc1c[nH]cn1)NCc1ccc(-c2ccccc2)cc1 [Example 82, N-[5-(4(5)-Imidazoyl)pentyl]-N'-(4-biphenyl)methyl-sulfamide]",–,–,27.5,–
